Data from article PMC11702115 (BMC Biology, 2025).

Columns and labels:
[1] = biological target: OfurIR75/OfurIR8a (Ostrinia furnacalis, UniProt A0A0F7QIG0); assay: two-electrode voltage clamp, Xenopus oocytes; format: cell-based; conditions: agonist, IR8a co-expressed, 10 uM screen, -80 mV, pH 7.6
[2] = biological target: T1, HarmOR52 (with HarmOrco) (Helicoverpa armigera, UniProt A0A7T3KAH2); assay: two-electrode voltage clamp, Xenopus oocytes; format: cell-based; conditions: agonist; Orco co-expressed; 100 uM screen, dose series; -80 mV, pH 7.6
T1 sequence (A0A7T3KAH2 1-419): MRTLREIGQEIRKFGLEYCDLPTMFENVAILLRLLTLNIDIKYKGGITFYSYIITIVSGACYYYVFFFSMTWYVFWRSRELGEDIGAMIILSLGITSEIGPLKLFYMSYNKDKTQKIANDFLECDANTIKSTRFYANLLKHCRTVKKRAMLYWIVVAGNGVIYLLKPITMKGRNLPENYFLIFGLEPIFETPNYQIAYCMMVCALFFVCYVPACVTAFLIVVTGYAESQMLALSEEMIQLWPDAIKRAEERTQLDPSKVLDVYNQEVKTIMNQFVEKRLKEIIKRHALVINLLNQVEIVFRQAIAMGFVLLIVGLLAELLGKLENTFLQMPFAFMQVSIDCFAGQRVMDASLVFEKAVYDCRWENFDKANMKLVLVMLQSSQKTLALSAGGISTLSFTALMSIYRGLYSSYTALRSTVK

Chain of OfurIR75/OfurIR8a (A0A0F7QIG0 19-626): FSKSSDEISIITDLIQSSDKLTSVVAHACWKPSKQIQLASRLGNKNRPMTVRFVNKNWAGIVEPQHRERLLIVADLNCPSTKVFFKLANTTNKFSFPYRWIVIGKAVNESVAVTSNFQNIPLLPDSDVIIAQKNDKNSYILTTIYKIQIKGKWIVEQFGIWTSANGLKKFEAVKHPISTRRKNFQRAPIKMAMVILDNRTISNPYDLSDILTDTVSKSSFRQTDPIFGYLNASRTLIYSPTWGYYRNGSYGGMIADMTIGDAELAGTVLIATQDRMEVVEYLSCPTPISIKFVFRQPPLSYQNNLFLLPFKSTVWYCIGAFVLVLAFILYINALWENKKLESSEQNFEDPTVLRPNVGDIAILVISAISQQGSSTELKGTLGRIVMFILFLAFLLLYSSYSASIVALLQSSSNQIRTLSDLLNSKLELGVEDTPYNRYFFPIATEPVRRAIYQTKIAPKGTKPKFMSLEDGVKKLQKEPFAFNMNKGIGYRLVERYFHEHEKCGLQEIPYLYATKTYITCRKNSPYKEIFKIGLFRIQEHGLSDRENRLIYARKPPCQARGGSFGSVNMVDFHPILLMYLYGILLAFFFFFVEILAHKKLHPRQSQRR
Chain of OfurIR75/OfurIR8a (A0A0F7QED2 20-902 partner): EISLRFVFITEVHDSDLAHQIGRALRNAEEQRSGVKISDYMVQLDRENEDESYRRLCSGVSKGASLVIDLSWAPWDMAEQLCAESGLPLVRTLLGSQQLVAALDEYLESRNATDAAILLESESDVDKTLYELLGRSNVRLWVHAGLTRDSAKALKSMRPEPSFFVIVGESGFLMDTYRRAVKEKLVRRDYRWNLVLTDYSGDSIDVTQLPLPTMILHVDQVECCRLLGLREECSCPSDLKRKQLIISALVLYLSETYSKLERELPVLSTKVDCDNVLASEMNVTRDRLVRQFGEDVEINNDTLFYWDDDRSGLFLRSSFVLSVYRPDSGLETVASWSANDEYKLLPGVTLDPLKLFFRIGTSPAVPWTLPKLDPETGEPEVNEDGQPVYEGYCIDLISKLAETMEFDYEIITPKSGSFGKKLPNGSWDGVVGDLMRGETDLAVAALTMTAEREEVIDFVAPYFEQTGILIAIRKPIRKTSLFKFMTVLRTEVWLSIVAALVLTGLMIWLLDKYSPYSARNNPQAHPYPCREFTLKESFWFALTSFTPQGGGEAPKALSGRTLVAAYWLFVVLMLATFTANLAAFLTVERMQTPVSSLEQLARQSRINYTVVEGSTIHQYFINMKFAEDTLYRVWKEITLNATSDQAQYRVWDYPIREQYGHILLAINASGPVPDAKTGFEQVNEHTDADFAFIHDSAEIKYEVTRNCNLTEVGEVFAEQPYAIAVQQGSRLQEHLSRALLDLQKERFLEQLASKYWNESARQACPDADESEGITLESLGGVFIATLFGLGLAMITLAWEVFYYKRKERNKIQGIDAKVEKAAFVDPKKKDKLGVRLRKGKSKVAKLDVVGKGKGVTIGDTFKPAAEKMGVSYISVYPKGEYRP

| SMILES | two-electrode voltage clamp, Xenopus oocytes [1] | two-electrode voltage clamp, Xenopus oocytes ([1]; dose series) | two-electrode voltage clamp, Xenopus oocytes [2] |
| --- | --- | --- | --- |
| CCCCCCC(=O)O [heptanoic acid] | Weaker responses were elicited by heptanoic acid and octanoic acid | – | – |
| CCCCCC(=O)O [hexanoic acid] | – | OfurIR75/OfurIR8a responded strongly with similar magnitudes to pentanoic acid and hexanoic acid | – |
| CC(C)CCO [isoamyl alcohol] | – | – | receptors from this clade exhibited similar response profiles, with isoamyl alcohol as the primary ligand |
| CCCCCCCC(=O)O [octanoic acid] | Weaker responses were elicited by heptanoic acid and octanoic acid | – | – |
| CCCCCO [pentanol] | – | – | dose-dependent, with a higher sensitivity to isoamyl alcohol compared to pentanol |
| CCCCC(=O)O [pentanoic acid] | – | OfurIR75/OfurIR8a responded strongly with similar magnitudes to pentanoic acid and hexanoic acid | – |
